The values that follow come from a melting point compilation (Tetko et al.; mined from patent text by program, amines drawn as free bases though some values may be those of a salt).

Bounds are passed on as bounds.

Regarding `CN(C)CCCOc1ccc(N2N=C3c4cc(F)ccc4CCC3CC2=O)cc1` (configuration not stated), the melting point lay in the range of 118 to 120 °C. In turn, `CC(=O)c1ccc(S(=O)(=O)Nc2cccnc2)cc1` returned a melting point of 182 to 183 °C.

The molecule `Nc1ccc(C(F)(F)F)cc1C(=O)O` showed a melting point of 191 to 192 °C.

`COc1cccc(-c2c[nH]c3ncnc(N)c23)c1` showed a melting point of 188 to 190 °C. `COc1cccnc1CSCCN=C(NC#N)SC` displayed a melting point of 102 to 103 °C. As for `CC1(C)CC(=O)OC(NCCCCN2CCN(c3ncccn3)CC2)N1` (configuration not stated), the figure is 124 to 126 °C; as for `COc1ccc(-c2c(Br)c(CN3C(=O)CCC3=O)nc3sc4c(c23)CCNC4)cc1`, 219 to 221 °C. `NC(=O)c1cnn2c1NCC=C2c1cccc(F)c1` came in with a melting point of 122 to 125 °C. Take `CC(=O)Nc1ccc2c(c1)Cc1cc(=O)[nH]nc1-2`: the melting point was greater than 300 °C. As for `Cc1cc(C)c(-c2c(O)c(Cl)c(-c3ccc(Cl)cc3)oc2=O)c(C)c1`, the figure is 229 to 231 °C; as for `O=C(O)c1cn(-c2ccc(F)cn2)c2nc(Cl)c(F)cc2c1=O`, 234 to 238 °C. Consider `OC1CSC(Oc2ccc(-c3cncnc3)cc2)C(O)C1O` (configuration not stated), for which the melting point was in the range of 196 to 200 °C.

As for `Cc1cc(-n2ccnc2)c2cccc(OCc3c(Cl)ccc(S(=O)(=O)N4CCC[C@H]4C(=O)NCC4CCN(CCCO)CC4)c3Cl)c2n1`, the melting point was found to be 90 °C. As for `CCOC(Cc1ccc(OCCN2c3ccccc3Oc3ccccc32)cc1)C(=O)O` (configuration not stated), the figure is 86 to 102 °C.

In turn, `C[C@H](C(=O)O)[C@H](O)CCCCc1ccccc1` displayed a melting point of 75 to 77 °C. Consider `COc1cccc(C(=O)c2ccc(OCc3nc(-c4ccccc4)oc3C)cc2)c1O`, for which the melting point fell in the range of 152 to 153 °C.

The molecule `Cc1cc(CCCCCOc2ccc(-c3cnco3)cc2)on1` displayed a melting point of 91 to 93 °C. Turning to `CCOC(=O)C12CCC(=O)N1CC(=O)N2` (configuration not stated), the melting point came out at 116 °C. As for `CCOC(=O)c1c2ccc(CC(=O)N(OC)C3COC(C)(C)O3)ccc-2c(C(=O)OCC)c1N` (configuration not stated), the figure is 135 to 137 °C. In the case of `Cc1ccnc2c1C(=O)c1ccccc1C2=O` it was 198 to 201 °C; in that of `CC#CC(Cc1cccnc1)(C(=O)O)S(=O)(=O)c1ccc(OC)cc1` (configuration not stated), 119 to 121 °C; in that of `Cc1cc(CCCCCOc2c(Cl)cc(-c3cccs3)cc2Cl)on1`, 45 to 47 °C.

Regarding `Cc1c(NC(=O)c2ccc(-c3ccc4c(c3)OCCO4)cc2)ccc2cc(CN3CCCC3)cnc12`, the melting point fell in the range of 187 to 188 °C. As for `O=C(Nc1nc(-c2ccco2)c(C(=O)C2CCOCC2)s1)c1ccc(F)cc1`, the figure is 131 to 132 °C; as for `COc1cc(C(C)=O)ccc1-c1ccc(F)cc1`, 75 to 77 °C; as for `CCC1(CC(=NNc2ccc([N+](=O)[O-])cc2[N+](=O)[O-])C(=O)OC)CCCN2CCc3c([nH]c4ccccc34)C21` (configuration not stated), 205 to 206 °C. Regarding `CN1C(=O)[C@H](NC(=O)CCc2ccccc2C(F)(F)F)N=C(c2ccccc2)c2ccccc21`, the melting point was 110 to 113 °C. Molecule `CN(C)S(=O)(=O)N[Si](C)(C)C` yielded a melting point of 83 to 86 °C. `COCOc1ccc(C=C[N+](=O)[O-])cc1OCc1ccccc1` gave a melting point of 75 to 76 °C. As for `S=c1ncc2ccccc2[nH]1`, the figure is 234 to 235 °C; as for `CCc1nc(-c2cccc(C)c2)c(-c2ccnc(NC3CCCC3)c2)s1`, 117 to 118 °C; as for `CCCc1c(OCc2cccn3c(=O)c(CCC(=O)O)cnc23)ccc(C(C)=O)c1O`, 210 to 214 °C. `CCCc1nc(N)nc(N)c1N1CCN(c2ccc(C#N)cc2)CC1`: the melting point was greater than 300 °C. `C[C@@H](c1nc(-c2ccc(C#N)cc2)cs1)[C@](O)(Cn1cncn1)c1ccc(F)cc1F` displayed a melting point of 164 to 166 °C. As for `CC(C)OC(=O)c1cn(-c2cccc(Cl)c2)cn1`, the figure is 109 °C; as for `O=[N+]([O-])c1ccccc1-c1ccc(CBr)cc1`, 109 to 110 °C; as for `COc1cccc(-c2c(C3CCN(C)CC3)[nH]c(=O)c3ccccc23)c1`, 181 to 183 °C. For `CCCCCCCCOc1ccc(C(=O)Oc2ccc(-c3ccc(OC(=O)[C@H]4CCCO4)cc3)cc2)cc1`, the melting point was 73 °C. As for `COc1ccc(Sc2ccc(CC(=O)O)cc2)cc1`, the figure is 85 to 87 °C. Take `ClCCOc1ccc(Br)cc1`: the melting point was 54 to 56 °C. `Cn1ncc(N)c1NCCO` displayed a melting point of 94 to 97 °C. In the case of `CCc1[nH]n(C2CCCC2)c2nc(-c3cc(C)nc(Cl)c3)nc(=O)c1-2` it was 277 to 278 °C; in that of `O=C(Nc1nc(-c2ccco2)c(C(=O)c2ccn(Cc3ccccc3)c(=O)c2)s1)c1ccncc1`, 288 to 291 °C. Turning to `Cn1c(=O)c2[nH]c(C3(N)CCCC3)nc2n(C)c1=O`, the melting point is 288 to 290 °C.

The molecule `O=C1CCC(c2ccccc2)(c2ccccc2)[C@@H]2CN(C(=O)Cc3ccccc3O)C[C@H]12` (racemic) came in with a melting point of 232 °C.

The molecule `O=c1oc(-c2ccc(-c3nc4ccccc4c(=O)o3)cc2)nc2ccccc12` gave a melting point greater than 300 °C. In the case of `CCCNC(=O)Nc1ccc(-c2cn3c(n2)C(OC2CCN(C)CC2)c2ccccc2CC3)cc1` (configuration not stated) it was 130 °C. `COc1ccccc1C(=O)c1[nH]c2cc(Cl)ccc2c1CC(=O)O` displayed a melting point of 214 to 217 °C. In the case of `C#CCN1C(=O)CC(c2ccccc2)N=C1c1ccccc1` (configuration not stated) it was 74.5 to 77 °C; in that of `Cc1nnc(-c2ccc3ncn(-c4ccc(OC(F)(F)F)c(Cl)c4)c3c2)o1`, 211 to 212 °C.

For `CCNc1ccc(NCCO)cc1[N+](=O)[O-]`, the melting point came out at 106 °C. In the case of `Oc1ccc(-c2ccc(C#CC3(O)CN4CCC3CC4)cc2)cc1` (configuration not stated) it was 230 to 233 °C; in that of `CCCc1ccccc1OCCCOc1ccc2c(=O)cc(C(N)=O)oc2c1`, 210 to 213 °C; in that of `C#CCOC(=O)N(I)C(C)C(=O)OC` (configuration not stated), 100 to 102 °C. The molecule `Cc1coc(NC(=S)Nc2cc(Cl)ccc2C)n1` registered a melting point of 207 to 208 °C.

`Cc1cc(C)c2cccc(OCc3c(Cl)ccc(S(=O)(=O)N4CC(O)CC4C(=O)O)c3Cl)c2n1` (configuration not stated) returned a melting point greater than 260 °C. With `CCCCCc1cc2c(nc(O)n2CCCNC(=O)NC2CCCCC2)c(N)n1`, the melting point was 202 to 204 °C.

For the molecule `N#Cc1cc(C(F)(F)F)cc(Cl)c1F`, the melting point is 150 to 152 °C. `CCc1c(F)c(=O)oc2cc(O)cc(O)c12` showed a melting point of 227 to 229 °C.

`CSc1ccc([N+](=O)[O-])cc1C(F)(F)F` registered a melting point of 50 °C. For `COC(=O)c1cn(-c2ncccn2)cc1C`, the melting point was found to be 108 °C. For `CC1(C)CC(=O)C(Br)(Cc2ccc(Cl)cc2)C(Br)C1` (configuration not stated), the melting point fell in the range of 82 to 84 °C. In the case of `CCNC(=O)c1c(I)cccc1[Si](C)(C)C` it was 135 to 137 °C. The molecule `CCc1nc2ccc(F)cc2c(OC(=O)C2CC2)c1C` returned a melting point of 86 to 87 °C.

On to `O=C(O)c1cccc(Cn2cc(C3c4ccccc4C=Cc4ccccc43)c(=S)[nH]c2=S)c1`, for which the melting point was in the range of 167 to 170 °C. As for `Fc1cccc(F)c1N1CS/C1=N/N=C\c1ccc(-c2ncn(-c3ccc(OC(F)(F)F)cc3)n2)cc1`, the figure is 144 to 146 °C; as for `Clc1ccc2c3c(cccc13)C(NCCCn1ccnc1)=N2`, 177 to 178 °C; as for `CC(=O)OCc1cc([N+](=O)[O-])ccc1C`, 52 to 53.5 °C. In the case of `O=c1nc(-c2cccc(CN3CCC(O)(c4ccc(Cl)cc4)CC3)n2)sc2ccccc12` it was 151 to 153 °C; in that of `CN1Cc2nnnn2-c2ccccc21`, 107 to 110 °C. As for `CCOc1cc(OCc2cccc(OCc3nc(-c4ccccc4)oc3C)c2)ccc1CCC(=O)O`, the figure is 122 to 123 °C; as for `CCOC(=O)c1ccc(C=Cc2cc3ccccc3s2)s1`, 116 to 117 °C. `CC(C)C(NC(=O)OCc1ccccc1)P(O)O` (configuration not stated) gave a melting point of 108 to 111 °C.

In turn, `CC1(O)CN(C(=O)c2cc(C(C)(C)C)c(O)c(C(C)(C)C)c2)C1` yielded a melting point of 148 to 153 °C.

Consider `C[C@@H](n1cnc2cc(F)ccc2c1=O)[C@](O)(Cn1cncn1)c1ccc(F)cc1F`, for which the melting point was 106 to 107 °C. As for `O=C(Nc1nc(=O)n(S(=O)(=O)c2ccccc2)cc1F)Oc1ccccc1`, the figure is 182 to 185 °C; as for `NC(=O)NC(=S)Nc1ccccc1`, 176 to 180 °C; as for `COc1ccccc1N1CCN(CCn2c(=O)c3cscc3n(C(C)=O)c2=O)CC1`, 128 to 129 °C. As for `COC(=O)[C@@H](C)OCC#Cc1cc(Cl)ccc1NS(=O)(=O)c1ccc2ncsc2c1`, the figure is 136 °C. In the case of `O=C1c2cc(S(=O)(=O)N3CCCCC3)ccc2SC12CC2` it was 156 to 157 °C; in that of `O=c1ccc2cc(OC3CCC4(CCNCC4)CC3)ccc2o1`, 193 to 194 °C; in that of `CN(C)Cc1nc(CSCCNC(=N)N[N+](=O)[O-])cs1`, 104 to 106 °C. Molecule `CCn1cnc(/C=C/c2cn(-c3ccccc3)nc2OCc2ccc(OCc3nc(-c4ccc(CC(=O)O)cc4)oc3C)c(OC)c2)c1` had a melting point of 194 to 196 °C. The molecule `CSc1nn2c(N)c3c(nc2c1S(=O)(=O)c1ccccc1)CCC3` showed a melting point greater than 230 °C. As for `CSc1nc2c(F)cccc2s1`, the figure is 30 °C; as for `CCC(=C(c1ccccc1)c1ccc(C=CC(=O)OC)cc1)c1ccccc1`, 133 to 135 °C; as for `CN(C)Cc1nnc(CN(C)C)n1-c1ccc(Cl)cc1C(=O)c1ccccc1`, 148 to 152 °C.

As to `CN1CC=C(SC(c2cccc(Br)c2)c2nc3ccccc3[nH]2)CC1` (configuration not stated), the melting point was found to be 189 °C. `CC(=O)Nc1cccc(-n2cccc2)c1` showed a melting point of 134 to 136 °C.

`O=C1N(N2CCOCC2)c2ccccc2C1(O)Cc1ccncc1` (configuration not stated) displayed a melting point of 198 to 200 °C.

As to `ON=C1CCCc2c1c1cccc3c1n2CC3`, the melting point lay within 271 to 272 °C. In the case of `COC(=O)[C@H](CC(=O)O)NC(=O)c1cccc(NC(=O)c2ccc(C(=N)N)cc2)c1` it was 248 to 249 °C.
